Assay results as given in PubChem BioAssay AID248 (DTP/NCI, 2004).
Where “and” joins values, the source holds several entries; their conditions need not be identical. Identical values can stand only once. Toxic doses and inconclusive results are not listed. No stated cut-off is given here; in the data, active means T/C of 150% or more; inactive means T/C below 125%.

Tested on: L1210 leukemia ip in BDF1 mice, survival T/C
Assay: NCI In Vivo Anticancer Drug Screen. Data for tumor model L1210 Leukemia (intraperitoneal) in B6D2F1 (BDF1) mice
Conditions: endpoint: mean survival time, higher = longer survival
Outline: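 Transplantable tumor model; survival measured in treated vs vehicle control mice. Value = treated/control.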

[1] = dose: 100.0 mg/kg/injection, schedule: Q01DX009 (ip), vehicle: saline with Tween-80
[2] = dose: 100.0 mg/kg/injection, schedule: Q04DX003 (ip), vehicle: saline with Tween-80
[3] = dose: 200.0 mg/kg/injection, schedule: Q01DX009 (ip), vehicle: saline with Tween-80
[4] = dose: 200.0 mg/kg/injection, schedule: Q04DX003 (ip), vehicle: saline with Tween-80
[5] = dose: 50.0 mg/kg/injection, schedule: Q04DX003 (ip), vehicle: Klucel (hydroxypropylcellulose) (HPC)
[6] = dose: 100.0 mg/kg/injection, schedule: Q01DX001 (ip), vehicle: Klucel (hydroxypropylcellulose) (HPC)
[7] = dose: 200.0 mg/kg/injection, schedule: Q01DX001 (ip), vehicle: Klucel (hydroxypropylcellulose) (HPC)
[8] = dose: 200.0 mg/kg/injection, schedule: Q04DX003 (ip), vehicle: Klucel (hydroxypropylcellulose) (HPC)
[9] = dose: 400.0 mg/kg/injection, schedule: Q01DX001 (ip), vehicle: Klucel (hydroxypropylcellulose) (HPC)
[10] = dose: 100.0 mg/kg/injection, schedule: Q01DX001 (ip), vehicle: carboxymethylcellulose (CMC)
[11] = dose: 200.0 mg/kg/injection, schedule: Q01DX001 (ip), vehicle: carboxymethylcellulose (CMC)
[12] = dose: 100.0 mg/kg/injection, schedule: Q01DX009 (ip), vehicle: saline
[13] = dose: 200.0 mg/kg/injection, schedule: Q01DX009 (ip), vehicle: saline
[14] = dose: 100.0 mg/kg/injection, schedule: Q04DX003 (ip), vehicle: Klucel (hydroxypropylcellulose) (HPC)
[15] = dose: 100.0 mg/kg/injection, schedule: Q01DX001 (ip), vehicle: saline
[16] = dose: 200.0 mg/kg/injection, schedule: Q01DX001 (ip), vehicle: saline
[17] = dose: 400.0 mg/kg/injection, schedule: Q01DX001 (ip), vehicle: saline

Measured: T/C

CC(=O)OCC(=O)[C@@]1(O)CC[C@H]2[C@@H]3CCC4=CC(=O)CC[C@]4(C)[C@H]3[C@@H](O)C[C@@]21C
inactive: dose: 1.13 mg/kg/injection, schedule: Q01DX Z (sc), vehicle: steriod suspending solution 102 % of control | dose: 2.25 mg/kg/injection, schedule: Q01DX Z (sc), vehicle: steriod suspending solution 107 % of control | dose: 4.5 mg/kg/injection, schedule: Q01DX Z (sc), vehicle: steriod suspending solution 102 % of control | dose: 9.0 mg/kg/injection, schedule: Q01DX Z (sc), vehicle: steriod suspending solution 101 % of control | dose: 25.0 mg/kg/injection, schedule: Q01DX Z (sc), vehicle: steriod suspending solution 87 % of control | dose: 50.0 mg/kg/injection, schedule: Q01DX Z (sc), vehicle: steriod suspending solution 102 % of control | [1] 105 % of control | dose: 100.0 mg/kg/injection, schedule: Q01DX Z (sc), vehicle: steriod suspending solution 106 % of control | [2] 104 % of control | [3] 104 % of control | dose: 200.0 mg/kg/injection, schedule: Q01DX009 (sc), vehicle: other 104 % of control | dose: 200.0 mg/kg/injection, schedule: Q01DX Z (sc), vehicle: steriod suspending solution 110 % of control | [4] 99 % of control | dose: 400.0 mg/kg/injection, schedule: Q01DX001 (sc), vehicle: steriod suspending solution 92 % of control | dose: 400.0 mg/kg/injection, schedule: Q01DX009 (ip), vehicle: saline with Tween-80 98 % of control | dose: 400.0 mg/kg/injection, schedule: Q01DX009 (sc), vehicle: other 102 % of control | dose: 400.0 mg/kg/injection, schedule: Q04DX003 (ip), vehicle: saline with Tween-80 100 % of control | dose: 600.0 mg/kg/injection, schedule: Q01DX009 (sc), vehicle: other 96 % of control | dose: 800.0 mg/kg/injection, schedule: Q01DX001 (sc), vehicle: steriod suspending solution 97 % of control | dose: 800.0 mg/kg/injection, schedule: Q01DX009 (sc), vehicle: other 101 % of control | dose: 1200.0 mg/kg/injection, schedule: Q01DX001 (sc), vehicle: steriod suspending solution 101 % of control | dose: 1600.0 mg/kg/injection, schedule: Q01DX001 (sc), vehicle: steriod suspending solution 100 % of control

O=C(CC(=O)c1ccccc1)Nc1ccc([N+](=O)[O-])cn1
inactive: [5] 91 % of control | [6] 103 % of control | [7] 105 % of control | [8] 93 % of control | [9] 98 % of control

Cn1nc(SCc2ccccc2)c(=O)n(C(c2ccccc2)c2ccccc2)c1=O
inactive: [10] 104 % of control | [11] 93 % of control

Cc1cc(S(=O)(=O)F)ccc1NC(=O)CCc1ccc(N2C(N)=NC(N)=NC2(C)C)cc1
inactive: [6] 98 % of control | [7] 102 % of control

NN1N=Nc2cccc3cccc1c23
inactive: dose: 50.0 mg/kg/injection, schedule: Q01DX009 (ip), vehicle: saline 96 % of control | [12] 107 % of control | dose: 100.0 mg/kg/injection, schedule: Q04DX003 (ip), vehicle: saline 92 % of control | [13] 88 % of control | dose: 200.0 mg/kg/injection, schedule: Q04DX003 (ip), vehicle: saline 91 % of control

Cc1cn[nH]c1-c1ccccc1
inactive: [5] 107 % of control | [14] 104 % of control | [8] 94 % of control

COc1ccc(CCN(CC(=O)O)S(=O)(=O)c2ccc(C)cc2)cc1OC
inactive: [15] 91 % of control | [16] 100 % of control | [17] 100 % of control

C(=NCCN=Cc1c[nH]c2ccccc12)c1c[nH]c2ccccc12
inactive: [1] 100 % of control | [2] 89 % of control | [3] 102 % of control | [4] 96 % of control

CSc1ccc(OC(=O)Nc2cccc(Cl)c2)cc1C
inactive: [10] 94 % of control | dose: 100.0 mg/kg/injection, schedule: Q01DX009 (ip), vehicle: carboxymethylcellulose (CMC) 98 % of control | dose: 100.0 mg/kg/injection, schedule: Q04DX002 (ip), vehicle: Klucel (hydroxypropylcellulose) (HPC) 101 % of control | dose: 100.0 mg/kg/injection, schedule: Q04DX002 (ip), vehicle: carboxymethylcellulose (CMC) 96 % of control and 101 % of control | dose: 100.0 mg/kg/injection, schedule: Q04DX003 (ip), vehicle: carboxymethylcellulose (CMC) 101 % of control | [11] 97 % of control | dose: 200.0 mg/kg/injection, schedule: Q01DX009 (ip), vehicle: carboxymethylcellulose (CMC) 100 % of control and 106 % of control | dose: 200.0 mg/kg/injection, schedule: Q04DX002 (ip), vehicle: Klucel (hydroxypropylcellulose) (HPC) 95 % of control | dose: 200.0 mg/kg/injection, schedule: Q04DX002 (ip), vehicle: carboxymethylcellulose (CMC) 95 % of control and 88 % of control | dose: 200.0 mg/kg/injection, schedule: Q04DX003 (ip), vehicle: carboxymethylcellulose (CMC) 94 % of control | dose: 400.0 mg/kg/injection, schedule: Q01DX001 (ip), vehicle: carboxymethylcellulose (CMC) 87 % of control | dose: 400.0 mg/kg/injection, schedule: Q01DX009 (ip), vehicle: carboxymethylcellulose (CMC) 93 % of control and 87 % of control | dose: 400.0 mg/kg/injection, schedule: Q04DX002 (ip), vehicle: Klucel (hydroxypropylcellulose) (HPC) 108 % of control | dose: 400.0 mg/kg/injection, schedule: Q04DX002 (ip), vehicle: carboxymethylcellulose (CMC) 95 % of control and 103 % of control | dose: 400.0 mg/kg/injection, schedule: Q04DX003 (ip), vehicle: carboxymethylcellulose (CMC) 92 % of control

CCCS(=O)(=O)c1ccc(C)cc1
inactive: [15] 98 % of control | [12] 94 % of control | dose: 100.0 mg/kg/injection, schedule: Q04DX003 (ip), vehicle: acetone 100 % of control | [16] 98 % of control | [13] 93 % of control | dose: 200.0 mg/kg/injection, schedule: Q04DX003 (ip), vehicle: acetone 102 % of control | [17] 107 % of control | dose: 400.0 mg/kg/injection, schedule: Q01DX009 (ip), vehicle: saline 93 % of control | dose: 400.0 mg/kg/injection, schedule: Q04DX003 (ip), vehicle: acetone 100 % of control

O=S(=O)(Cl)c1ccc(Oc2ccc(S(=O)(=O)Cl)cc2)cc1
inactive: dose: 50.0 mg/kg/injection, schedule: Q01DX001 (ip), vehicle: saline 105 % of control | [15] 94 % of control | [16] 105 % of control | [17] 90 % of control

O=C(NC(c1ccccc1)C(NC(=O)c1ccccc1)c1ccccc1)c1ccccc1 (stereo not drawn)
inactive: [6] 99 % of control | [7] 99 % of control | [9] 97 % of control

Cc1nc(N)[nH]c(=O)c1CCCN=Cc1cccc([N+](=O)[O-])c1
inactive: dose: 12.5 mg/kg/injection, schedule: Q01DX001 (ip), vehicle: Klucel (hydroxypropylcellulose) (HPC) 110 % of control | dose: 25.0 mg/kg/injection, schedule: Q01DX001 (ip), vehicle: Klucel (hydroxypropylcellulose) (HPC) 103 % of control | dose: 50.0 mg/kg/injection, schedule: Q01DX001 (ip), vehicle: Klucel (hydroxypropylcellulose) (HPC) 97 % of control

Nc1ccccc1/C=C(\C(=O)O)c1cccc(Cl)c1
inactive: [14] 99 % of control | [8] 101 % of control | dose: 400.0 mg/kg/injection, schedule: Q04DX003 (ip), vehicle: Klucel (hydroxypropylcellulose) (HPC) 108 % of control
